This is an account of results in patent publication US5306824A, “Biotinylated isocoumarins” (Georgia Tech Research Corporation, priority 1992, dated 1994).

The structures appear in SMILES notation.

The target in one experiment is Rat Granule Tryptase. In words: Inhibition of rat granule tryptase. It counts as biochemical. The note with it: [I] 0.078 mM or 0.2 mM as per table line; pH 7.5, 10% Me2SO, 25° C. Here is the method:
(§1) Inactivation rates of serine proteases by substituted isocoumarins were measured by the incubation method. An aliquot of inhibitor (25 or 50 μl) in Me2 SO was added to a buffered enzyme solution (0.01-2.3 μM) to initiate the inactivation. Aliquots (50-100 μl) were withdrawn at various intervals and the residual enzymatic activity was measured. Me2 SO concentration in the reaction mixture was 8-12% (v/v). 0.1M Hepes, 0.5M NaCl, pH 7.5 buffer was utilized for the assays of chymotrypsin, cathepsin G (cat G), porcine pancreatic elastase (PPE), human leukocyte elastase (HLE) and rat granule serine proteases. 0.1M Hepes, 0.01M CaCl2, pH 7.5 buffer was utilized for the assays of trypsin and human recombinant (HR) granzyme A. The inhibitor concentrations are shown in the Tables I and II. Peptide nitroanilides with appropriate sequence were used as substrates for various serine proteases. All peptide 4-nitroanilide hydrolysis was measured at 410 nm (ε410 =8800M^-1 cm^-1; Erlanger et al., Arch. Biochem. Biophys. 95, pp 271-278 (1961), incorporated herein by reference). Peptide thioester hydrolysis rates were measured with assay mixtures containing 4,4'-dithiodipyridine (ε324 =19800M^-1 cm^-1; Grasetti & Murray, Arch. Biochem. Biophys. 119, pp. 41-49 (1967), incorporated herein by reference). […]
(§2) ^a Inhibition was measured in 0.1 M Hepes, 0.5 M NaCl, pH 7.5 buffer, […]

The subject of experiment [1] is Rat Granule Chymase. In words: Reactivation of inhibited rat granule chymase with NH2OH. The note with it: 0.4 M NH2OH, immediately after addition. The experiment is classed as biochemical. As to the method:
(§3) ^a Inhibition was performed at 0.1 M Hepes, 0.5 M NaCl, pH 7.5 buffer
(§4) 10% Me2 SO and 25° C. Reactivation was carried out in the
presence of 0.4 M of NH2 OH, and occurred immediately after the […]

A further experiment deals with T1, trypsin (Bos taurus, UniProt P00760).
T1 sequence (P00760 24-246): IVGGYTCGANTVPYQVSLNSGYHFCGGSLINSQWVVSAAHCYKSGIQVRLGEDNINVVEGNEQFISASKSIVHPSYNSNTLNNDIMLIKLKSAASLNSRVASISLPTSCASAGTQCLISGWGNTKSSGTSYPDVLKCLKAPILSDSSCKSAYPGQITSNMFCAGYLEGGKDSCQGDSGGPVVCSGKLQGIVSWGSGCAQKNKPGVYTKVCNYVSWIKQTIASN
Kind of experiment: Inactivation of trypsin by biotin-isocoumarins (incubation method). The experiment is classed as biochemical. The note with it: inhibitor 41-42 μM; 0.1 M Hepes, 0.01 M CaCl2, pH 7.5, 25° C.; read-out: kobs/[I] Trypsin. Here is the method:
(§5) Inactivation rates of serine proteases by substituted isocoumarins were measured by the incubation method. An aliquot of inhibitor (25 or 50 μl) in Me2 SO was added to a buffered enzyme solution (0.01-2.3 μM) to initiate the inactivation. Aliquots (50-100 μl) were withdrawn at various intervals and the residual enzymatic activity was measured. Me2 SO concentration in the reaction mixture was 8-12% (v/v). 0.1M Hepes, 0.5M NaCl, pH 7.5 buffer was utilized for the assays of chymotrypsin, cathepsin G (cat G), porcine pancreatic elastase (PPE), human leukocyte elastase (HLE) and rat granule serine proteases. 0.1M Hepes, 0.01M CaCl2, pH 7.5 buffer was utilized for the assays of trypsin and human recombinant (HR) granzyme A. The inhibitor concentrations are shown in the Tables I and II. Peptide nitroanilides with appropriate sequence were used as substrates for various serine proteases. All peptide 4-nitroanilide hydrolysis was measured at 410 nm (ε410 =8800M^-1 cm^-1; Erlanger et al., Arch. Biochem. Biophys. 95, pp 271-278 (1961), incorporated herein by reference). Peptide thioester hydrolysis rates were measured with assay mixtures containing 4,4'-dithiodipyridine (ε324 =19800M^-1 cm^-1; Grasetti & Murray, Arch. Biochem. Biophys. 119, pp. 41-49 (1967), incorporated herein by reference). First order inactivation rate constant (kobs) were obtained from plots of ln (vt /vo) vs time, and the correlation coefficients were greater than 0.98.
(§6) ^a Inhibition was measured in 0.1 M Hepes, 0.5 M NaCl (or 0.01 M
(§7) CaCl2), pH 7.5 buffer, 5-10% Me2 SO and at 25° C.
(§8) ZGlu-Phe-Arg-NA (0.032 mM) was a substrate for trypsin. ZArg-SBzl (0.120
^f Inhibitor concentrations were 41-42 μM.

Experiment [2] has as its target T2, chymotrypsin (Bos taurus, UniProt P00766). Kind of experiment: Reactivation of inhibited chymotrypsin in buffer and with NH2OH. It counts as biochemical, bovine. Here is the method: as §3, §4
presence of 0.4 M of NH2 OH, and occurred immediately after the
^b Enzyme activity was measured after removal of excess inhibitor by
centrifugation at 0° C. with centricon10 microconcentrator and
staying at 25° C. for two days.

The target of experiment [3] is T2, chymotrypsin. In words: Effect of streptavidin and avidin on reactivation of inhibited chymotrypsin. The note with it: monitored for two days. The experiment is classed as biochemical, bovine. Here is the method:
^a Percentage of regained enzymatic activity was measured in 0.1 M
Hepes, 0.5 M NaCl, pH 7.5 buffer, 8% Me2 SO and at 25° C.
Excess inhibitor was removed from enzymeinhibitor mixture by
centrifugation twice with Amicon microconcentrator10. Then 3-4 units of
avidin or strepavidin was added and enzymatic activity was monitored for […]

Experiment [4] deals with Rat Granule Chymase. Kind of experiment: Inhibition of rat granule chymase. The experiment is classed as biochemical. The note with it: [I] 0.078 mM; inhibition not time dependent; pH 7.5, 10% Me2SO, 25° C. As to the method:
as §1, §2

In experiment [5] the target is T3, human leukocyte elastase (HLE) (Homo sapiens, UniProt P08246).
T3 sequence (P08246 30-267): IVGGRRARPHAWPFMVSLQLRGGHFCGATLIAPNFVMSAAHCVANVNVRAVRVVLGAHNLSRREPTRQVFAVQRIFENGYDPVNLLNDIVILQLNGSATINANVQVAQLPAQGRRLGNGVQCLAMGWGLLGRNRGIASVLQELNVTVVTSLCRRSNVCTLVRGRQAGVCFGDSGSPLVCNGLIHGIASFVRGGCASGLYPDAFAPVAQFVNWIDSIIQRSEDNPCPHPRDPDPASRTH
Kind of experiment: Inactivation of human leukocyte elastase by biotin-isocoumarins (incubation method). The experiment is classed as biochemical. The note with it: inhibitor 1.6-210 μM; pH 7.5, 25° C.; read-out: kobs/[I] HLE. As to the method: as §5, §6, §7
(§9) G. MeOSuc-Ala-Ala-Pro-Val-NA (0.24-0.47 mM) and SucAla-Ala-Ala-NA
(0.29-0.48 mM) were used as the substrate for HLE and PPE respectively.
^d Inhibitor concentrations were 1.6-210 μM.

The target in another experiment is T4, cathepsin G (cat G) (Homo sapiens, UniProt P08311).
T4 sequence (P08311 21-255): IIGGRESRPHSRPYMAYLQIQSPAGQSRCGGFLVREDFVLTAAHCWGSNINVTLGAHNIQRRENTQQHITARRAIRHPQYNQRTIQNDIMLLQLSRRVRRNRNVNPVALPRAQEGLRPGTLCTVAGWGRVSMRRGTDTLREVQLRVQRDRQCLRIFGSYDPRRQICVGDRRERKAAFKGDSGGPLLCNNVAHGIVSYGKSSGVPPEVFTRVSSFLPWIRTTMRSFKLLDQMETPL
In words: Inactivation of cathepsin G by biotin-isocoumarins (incubation method). It counts as biochemical. The note with it: inhibitor 75-400 μM; pH 7.5, 25° C.; 10 min. Here is the method:
as §5, §6, §7
SucVal-Pro-NA (0.48 mM) was used as the substrate for chymotrypsin and ca
as §9
^c Inhibitor concentrations were 75-400 μM.
(§10) ^h No inhibition after 10 min of incubation of inhibitor and enzyme.
(§11) ^i Percentage of inhibition after 10 min of incubation of inhibitor

Experiment [6] has as its target T5, human recombinant (HR) granzyme A (Homo sapiens, UniProt P12544).
T5 sequence (P12544 29-262): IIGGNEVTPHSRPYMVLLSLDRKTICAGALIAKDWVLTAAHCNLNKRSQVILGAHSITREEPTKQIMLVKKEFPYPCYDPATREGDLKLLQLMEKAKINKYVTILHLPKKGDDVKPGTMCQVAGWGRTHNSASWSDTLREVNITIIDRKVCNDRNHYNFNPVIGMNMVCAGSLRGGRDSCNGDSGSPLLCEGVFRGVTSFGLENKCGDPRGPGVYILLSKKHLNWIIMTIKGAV
In words: Inactivation of human recombinant granzyme A by biotin-isocoumarins (incubation method). It counts as biochemical. The note with it: inhibitor 160-210 μM, pH 7.5, 25° C. As to the method: as §5, §6, §7, §8
mM) was a substrate for human recombinant (HR) granzyme A.
^g Inhibitor concentrations were 160-210 μM.
as §10, §11

Turning to `O=C(CCCC[C@@H]1SC[C@@H]2NC(=O)N[C@@H]21)NCCCCCC(=O)Nc1ccc2c(Cl)c(OCCc3ccccc3)oc(=O)c2c1` [Compound 3, 7-(6-biotinylaminocaproyl)amino-4-chloro-3-(2-phenylethoxy)isocoumarin], the “Rat Granule Tryptase kobs/[I]” value on Rat Granule Tryptase was in the range of 6 to 12 M⁻¹ s⁻¹. Also, in the experiment with Rat Granule Chymase [1], the “% of Enzyme Activity Reactivated, Rat granule chymase +NH2OH” value is 30-50%. Also, the kinact/KI at trypsin is 1 M⁻¹ s⁻¹; in experiment [5] it was 670 M⁻¹ s⁻¹. For the same molecule, the “% of Enzyme Activity Reactivated, Chymotrypsin +NH2OH” value on chymotrypsin [2] (0.4 M NH2OH, immediately after addition) is 100%. Further, on chymotrypsin [2] (after removal of excess inhibitor, 25° C. for two days), the “% of Enzyme Activity Reactivated, Chymotrypsin in buffer” value is 10%. Moreover, the “% of Regained Enzyme Activity, Chymotrypsin, +Streptavidin” value on chymotrypsin [3] (3-4 units streptavidin, 2880 min) is recorded as 39%. Moreover, on chymotrypsin [3] (pH 7.5, 8% Me2SO, 25° C.), the “% of Regained Enzyme Activity, Chymotrypsin, Buffer” value was 15%. Also, the “Rat Granule Chymase % of inhibition” value in the experiment with Rat Granule Chymase [4] is recorded as 30-50%.

As to `O=C(CCCCC1SCC2NC(=O)NC21)NCCNC(=O)CNC(=O)Nc1ccc2c(Cl)c(OCCc3ccccc3)oc(=O)c2c1` (stereo not drawn) [Compound 8, 7-biotin-NH(CH2)2 NH--COCH2 NHCONH-4-chloro-3-(2-phenylethoxy)isocoumarin], on cathepsin G (cat G), the “Percentage of inhibition of Cat. G after 10 min of incubation of inhibitor and enzyme” value is recorded as 19%. In experiment [6], the “Percentage of inhibition of HR Granzyme A after 10 min of incubation of inhibitor and enzyme” value worked out at 18%. Besides, in experiment [5], the kinact/KI turned out to be 6.6 M⁻¹ s⁻¹.
